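Five concentrations, 48 hours, 96-well plates. TGI is the concentration that stops growth completely.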
What was measured:
Experiment in all cases: growth of human tumour cells (NCI), 48 h
786-0 renal = system: 786-0 renal
A498 renal = system: A498 renal
A549 NSCLC = system: A549 NSCLC
ACHN renal = system: ACHN renal
CAKI-1 renal = system: CAKI-1 renal
CCRF-CEM leukemia = system: CCRF-CEM leukemia
COLO 205 colon = system: COLO 205 colon
DLD-1 colon = system: DLD-1 colon
DMS 114 small cell lung = system: DMS 114 small cell lung
DMS 273 small cell lung = system: DMS 273 small cell lung
EKVX NSCLC = system: EKVX NSCLC
HCC-2998 colon = system: HCC-2998 colon
HCT-116 colon = system: HCT-116 colon
HCT-15 colon = system: HCT-15 colon
HL-60(TB) leukemia = system: HL-60(TB) leukemia
HOP-18 NSCLC = system: HOP-18 NSCLC
HOP-62 NSCLC = system: HOP-62 NSCLC
HOP-92 NSCLC = system: HOP-92 NSCLC
HT29 colon = system: HT29 colon
IGROV1 ovarian = system: IGROV1 ovarian
K-562 leukemia = system: K-562 leukemia
KM12 colon = system: KM12 colon
KM20L2 colon = system: KM20L2 colon
LOX IMVI melanoma = system: LOX IMVI melanoma
LXFL 529 NSCLC = system: LXFL 529 NSCLC
M14 melanoma = system: M14 melanoma
M19-MEL melanoma = system: M19-MEL melanoma
MALME-3M melanoma = system: MALME-3M melanoma
MOLT-4 leukemia = system: MOLT-4 leukemia
NCI-H226 lung = system: NCI-H226 lung
NCI-H23 lung = system: NCI-H23 lung
NCI-H460 lung = system: NCI-H460 lung
NCI-H522 lung = system: NCI-H522 lung
OVCAR-3 ovarian = system: OVCAR-3 ovarian
OVCAR-4 ovarian = system: OVCAR-4 ovarian
OVCAR-5 ovarian = system: OVCAR-5 ovarian
OVCAR-8 ovarian = system: OVCAR-8 ovarian
RPMI-8226 leukemia = system: RPMI-8226 leukemia
SF-268 CNS = system: SF-268 CNS
SF-295 CNS = system: SF-295 CNS
SF-539 CNS = system: SF-539 CNS
SK-MEL-2 melanoma = system: SK-MEL-2 melanoma
SK-MEL-28 melanoma = system: SK-MEL-28 melanoma
SK-MEL-5 melanoma = system: SK-MEL-5 melanoma
SK-OV-3 ovarian = system: SK-OV-3 ovarian
SN12C renal = system: SN12C renal
SNB-19 CNS = system: SNB-19 CNS
SW-620 colon = system: SW-620 colon
TK-10 renal = system: TK-10 renal
U251 CNS = system: U251 CNS
UACC-257 melanoma = system: UACC-257 melanoma
UACC-62 melanoma = system: UACC-62 melanoma
UO-31 renal = system: UO-31 renal
XF 498 CNS = system: XF 498 CNS
RXF 393 renal = system: RXF 393 renal
SNB-75 CNS = system: SNB-75 CNS
SR leukemia = system: SR leukemia

For N#C/C(=C\c1ccc(CP(=O)(O)O)cc1)C(N)=O, the TGI (786-0 renal) was > 100 µM, the TGI (A498 renal) was > 100 µM and the TGI (A549 NSCLC) was > 100 µM. For the same compound, the TGI (ACHN renal) was > 100 µM, the TGI (CAKI-1 renal) was > 100 µM and the TGI (CCRF-CEM leukemia) was > 100 µM. The TGI (COLO 205 colon) was > 100 µM, the TGI (DLD-1 colon) was > 100 µM and the TGI (DMS 114 small cell lung) was > 100 µM. The TGI (DMS 273 small cell lung) was > 100 µM, the TGI (EKVX NSCLC) was > 100 µM and the TGI (HCC-2998 colon) was > 100 µM. The TGI (HCT-116 colon) was > 100 µM, the TGI (HCT-15 colon) was > 100 µM and the TGI (HL-60(TB) leukemia) was > 100 µM. The TGI (HOP-18 NSCLC) was > 100 µM, the TGI (HOP-62 NSCLC) was > 100 µM and the TGI (HOP-92 NSCLC) was > 100 µM. For the same compound, the TGI (HT29 colon) was > 100 µM, the TGI (IGROV1 ovarian) was > 100 µM and the TGI (K-562 leukemia) was > 100 µM. For the same compound, the TGI (KM12 colon) was > 100 µM, the TGI (KM20L2 colon) was > 100 µM and the TGI (LOX IMVI melanoma) was > 100 µM. The TGI (LXFL 529 NSCLC) was > 100 µM, the TGI (M14 melanoma) was > 100 µM and the TGI (M19-MEL melanoma) was > 100 µM. The TGI (MALME-3M melanoma) was > 100 µM, the TGI (MOLT-4 leukemia) was > 100 µM and the TGI (NCI-H226 lung) was > 100 µM. For the same compound, the TGI (NCI-H23 lung) was > 100 µM, the TGI (NCI-H460 lung) was > 100 µM and the TGI (NCI-H522 lung) was > 100 µM. For the same compound, the TGI (OVCAR-3 ovarian) was > 100 µM, the TGI (OVCAR-4 ovarian) was > 100 µM and the TGI (OVCAR-5 ovarian) was > 100 µM. For the same compound, the TGI (OVCAR-8 ovarian) was > 100 µM, the TGI (RPMI-8226 leukemia) was > 100 µM and the TGI (SF-268 CNS) was > 100 µM. The TGI (SF-295 CNS) was > 100 µM, the TGI (SF-539 CNS) was > 100 µM and the TGI (SK-MEL-2 melanoma) was > 100 µM. For the same compound, the TGI (SK-MEL-28 melanoma) was > 100 µM, the TGI (SK-MEL-5 melanoma) was > 100 µM and the TGI (SK-OV-3 ovarian) was > 100 µM. The TGI (SN12C renal) was > 100 µM, the TGI (SNB-19 CNS) was > 100 µM and the TGI (SW-620 colon) was > 100 µM. The TGI (TK-10 renal) was > 100 µM, the TGI (U251 CNS) was > 100 µM and the TGI (UACC-257 melanoma) was > 100 µM. The TGI (UACC-62 melanoma) was > 100 µM, the TGI (UO-31 renal) was > 100 µM and the TGI (XF 498 CNS) was > 100 µM.

For Cc1cccc(C)c1NC(=O)CCC(=O)NNC(=O)c1cc(O)c2ccccc2c1, the TGI (786-0 renal) was > 100 µM, the TGI (A498 renal) was 3.78 µM and the TGI (A549 NSCLC) was > 100 µM. The TGI (ACHN renal) was > 100 µM, the TGI (CAKI-1 renal) was > 100 µM and the TGI (CCRF-CEM leukemia) was 72.5 µM. The TGI (COLO 205 colon) was 49 µM, the TGI (DLD-1 colon) was > 100 µM and the TGI (DMS 114 small cell lung) was 65.2 µM. The TGI (EKVX NSCLC) was > 100 µM, the TGI (HCC-2998 colon) was > 100 µM and the TGI (HCT-116 colon) was > 100 µM. The TGI (HCT-15 colon) was > 100 µM, the TGI (HL-60(TB) leukemia) was 95.2 µM and the TGI (HOP-18 NSCLC) was > 100 µM. The TGI (HOP-62 NSCLC) was > 100 µM, the TGI (HOP-92 NSCLC) was > 100 µM and the TGI (HT29 colon) was > 100 µM. For the same compound, the TGI (IGROV1 ovarian) was > 100 µM, the TGI (K-562 leukemia) was > 100 µM and the TGI (KM12 colon) was > 100 µM. For the same compound, the TGI (KM20L2 colon) was > 100 µM, the TGI (LOX IMVI melanoma) was > 100 µM and the TGI (LXFL 529 NSCLC) was > 100 µM. For the same compound, the TGI (M14 melanoma) was > 100 µM, the TGI (M19-MEL melanoma) was > 100 µM and the TGI (MALME-3M melanoma) was > 100 µM. The TGI (MOLT-4 leukemia) was > 100 µM, the TGI (NCI-H226 lung) was > 100 µM and the TGI (NCI-H23 lung) was 88 µM. For the same compound, the TGI (NCI-H460 lung) was > 100 µM, the TGI (NCI-H522 lung) was 82.3 µM and the TGI (OVCAR-3 ovarian) was > 100 µM. The TGI (OVCAR-5 ovarian) was > 100 µM, the TGI (OVCAR-8 ovarian) was 87.4 µM and the TGI (RPMI-8226 leukemia) was > 100 µM. The TGI (RXF 393 renal) was > 100 µM, the TGI (SF-268 CNS) was > 100 µM and the TGI (SF-295 CNS) was 87.6 µM. The TGI (SF-539 CNS) was 78.2 µM, the TGI (SK-MEL-28 melanoma) was > 100 µM and the TGI (SK-MEL-5 melanoma) was 84.6 µM. For the same compound, the TGI (SK-OV-3 ovarian) was > 100 µM, the TGI (SN12C renal) was > 100 µM and the TGI (SNB-19 CNS) was > 100 µM. For the same compound, the TGI (SNB-75 CNS) was > 100 µM, the TGI (SR leukemia) was > 100 µM and the TGI (SW-620 colon) was > 100 µM. For the same compound, the TGI (TK-10 renal) was > 100 µM, the TGI (U251 CNS) was > 100 µM and the TGI (UACC-257 melanoma) was > 100 µM. For the same compound, the TGI (UACC-62 melanoma) was 71.3 µM, the TGI (UO-31 renal) was > 100 µM and the TGI (XF 498 CNS) was > 100 µM.

— PubChem BioAssay (NCI)
